Values of other authors in patent publication US20240397939A1, “COMPOSITIONS COMPRISING DIFFERENT DRIFT RETARDING AGENTS” (BAYER CROPSCIENCE LP, priority 2021, published 2024).

Conditions: known HLB value, estimation by Griffin's method

| Substance | HLB |
| --- | --- |
| Polysorbate 80 (polyoxyethylene sorbitan monooleate) [Tween® 80] | 15 |
| Sorbitan monooleate [Span® 80] | 4.3 |
